Series [1] is described as follows: Half life in human at 20 mg, po qd for 10 days. It is filed as ADME, organism-based. The settings on record: in vivo.
In series [2] the test system is Homo sapiens. Put plainly: Toxicity in human assessed as serious adverse events at 20 mg, po qd for 10 days. Type of series: organism-based. The following applies: in vivo, 240 h.
Series [3] can be described thus: AUC (0 to 24 hrs) in human at 20 mg, po qd for 10 days followed by 16 days washout period and treated with 20 mg, po qd for 10 days coadministered with fosamprenavir at 700 mg, po bid and ritonavir at 100 mg, po bid. Type of series: ADME, organism-based. Set-up: dose 20 mg, time < 24 hr, route oral. The following applies: plasma.
The subject of series [4] is Homo sapiens. As to the kind of experiment: Toxicity in human assessed as serious adverse events at 20 mg, po qd for 10 days followed by 16 days washout period and treated with 20 mg, po qd for 10 days coadministered with fosamprenavir at 700 mg, po bid and ritonavir at 100 mg, po bid. It is filed as organism-based. The following applies: in vivo.
The test system of series [5] is Homo sapiens. Put plainly: Decrease in serotonin concentration in human platelets at 20 mg, po qd for 10 days relative to control. Type of series: functional. The arrangement: scale not given: the % may be the effect or the level left.
A short description of series [6]: AUC (0 to 24 hrs) in human at 20 mg, po qd for 10 days. Type of series: ADME, organism-based. The arrangement: time < 24 hr, dose 20 mg, route oral. The following applies: plasma.
Series [7] can be described thus: Apparent volume of distribution in human. It is filed as ADME, organism-based. The settings on record: in vivo, read-out: Vz.
The nature of series [8]: Cmax in human at 20 mg, po qd for 10 days followed by 16 days washout period and treated with 20 mg, po qd for 10 days coadministered with fosamprenavir at 700 mg, po bid and ritonavir at 100 mg, po bid. The following applies: in vivo. The arrangement: dose 20 mg, route oral. It is filed as ADME, organism-based.
Series [9] can be described thus: Half life in human at 20 mg, po qd for 10 days followed by 16 days washout period and treated with 20 mg, po qd for 10 days coadministered with fosamprenavir at 700 mg, po bid and ritonavir at 100 mg, po bid. The settings on record: in vivo. It is filed as ADME, organism-based.
In series [10] the test system is Homo sapiens. Put plainly: Decrease in serotonin concentration in human platelets at 20 mg, po qd for 10 days followed by 16 days washout period and treated with 20 mg, po qd for 10 days coadministered with fosamprenavir at 700 mg, po bid and ritonavir at 100 mg, po bid relative to control. It is filed as functional. Set-up: scale not given: the % may be the effect or the level left.

A short description of series [11]: Apparent oral clearance in human at 20 mg, po qd for 10 days. The following applies: in vivo. It is filed as ADME, organism-based.
Series [12] in a line: Cmax in human at 20 mg, po qd for 10 days. Type of series: ADME, organism-based. The arrangement: dose 20 mg, route oral. The following applies: in vivo.
The test system of series [13] is Homo sapiens. Put plainly: Half life in human assessed as amprenavir levels at 700 mg, po bid for 10 days pretreated with paroxetin at 20 mg, po qd for 10 days followed by 16 days washout period then coadministered with paroxetin at 20 mg, po qd and ritonavir at 100 mg, po bid for 10 days. Type of series: ADME, organism-based. The following applies: in vivo.
The subject of series [14] is Homo sapiens. As to the kind of experiment: AUC (0 to 12 hrs) in human assessed as amprenavir levels at 700 mg, po bid for 10 days pretreated with paroxetin at 20 mg, po qd for 10 days followed by 16 days washout period then coadministered with paroxetin at 20 mg, po qd and ritonavir at 100 mg, po bid for 10 days. Set-up: time < 12 hr, dose 700 mg, route oral. It is filed as ADME, organism-based, Plasma. The settings on record: in vivo.

Series [15] is described as follows: AUC (0 to 12 hrs) in human at 100 mg, po bid for 10 days pretreated with paroxetin at 20 mg, po qd for 10 days followed by 16 days washout period then coadministered with paroxetin at 20 mg, po qd and fosamprenavir at 700 mg, po bid for 10 days. The settings on record: plasma. Type of series: ADME, organism-based. The arrangement: time < 12 hr, dose 100 mg, route oral.

Series [16] in a line: clinical. The settings on record: human, in vivo, po.
Description: Half life in human at 100 mg, po bid for 10 days pretreated with paroxetin at 20 mg, po qd for 10 days followed by 16 days washout period then coadministered with paroxetin at 20 mg, po qd and fosamprenavir at 700 mg, po bid for 10 days

As usually defined, the half-life is the time in which the quantity being followed falls by half. The AUC is concentration integrated over time. A word on the Cmax: it is the maximum level reached in the sampled fluid or tissue. In general, CL/F refers to clearance divided by bioavailability, as obtained after extravascular dosing. For `Fc1ccc([C@@H]2CCNC[C@H]2COc2ccc3c(c2)OCO3)cc1` [PAROXETINE], the half-life in [1] was 21.1 h; in series [9] it was 15.9 h. The Activity entry is “Non-toxic” in [2], “Non-toxic” in series [4], 87% in series [5] and 81% in [10]. Also, the AUC at 24 h in series [3] was 270 ng·h/mL; in series [6], 590 ng·h/mL. Moreover, the Vd in [7] is 8.7 L/kg. Also, the values for the Cmax in series [8] and in [12] were 17 ng/mL and 34 ng/mL, respectively. Further, the apparent clearance (CL/F) in series [11] is 552 mL/min.
As for `CC(C)CN(C[C@@H](O)[C@H](Cc1ccccc1)NC(=O)O[C@H]1CCOC1)S(=O)(=O)c1ccc(N)cc1` [AMPRENAVIR], the t1/2 in series [13] came out at 11.5 h. For the same compound, the exposure (AUC) in [14] is 44100 ng·h/mL.
As for `CC(C)c1nc(CN(C)C(=O)N[C@H](C(=O)N[C@@H](Cc2ccccc2)C[C@H](O)[C@H](Cc2ccccc2)NC(=O)OCc2cncs2)C(C)C)cs1` [RITONAVIR], the AUC at 12 h in [15] is 5100 ng·h/mL. The compound also showed a half-life in [16] of 4.1 h.

Source of the values: ChEMBL document CHEMBL1137661, “Interaction study of the combined use of paroxetine and fosamprenavir-ritonavir in healthy subjects” (Antimicrob Agents Chemother, 2007).
